Tested on: 817829-284-R-J1-PDC complex spheroids, viability
Assay: Anticancer human tumor 817829-284-R-J1-PDC patient-derived colon adenocarcinoma cell line growth inhibition [CLK]
Conditions: for IC50: curve of first compound; for viability, T/C: stronger effect = lower value
Outline: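 Patient-derived tumor cells grown as complex spheroids with HUVEC endothelial cells and mesenchymal stem cells, treated with drug combinations. Concentrations descend in half-log steps from near clinical Cmax, or from 10 microM if Cmax unknown.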

[1] = second compound 0.0316 µM, first compound 0.0316 µM
[2] = second compound 0.0316 µM, first compound 0.1 µM
[3] = second compound 0.0316 µM, first compound 0.316 µM
[4] = second compound 0.0316 µM, first compound 1 µM
[5] = second compound 0.0316 µM, first compound 3.16 µM
[6] = second compound 0.0316 µM, first compound 10 µM
[7] = second compound 0.1 µM, first compound 0.0316 µM
[8] = second compound 0.1 µM, first compound 0.1 µM
[9] = second compound 0.1 µM, first compound 0.316 µM
[10] = second compound 0.1 µM, first compound 1 µM
[11] = second compound 0.1 µM, first compound 3.16 µM
[12] = second compound 0.1 µM, first compound 10 µM
[13] = second compound 0.316 µM, first compound 0.0316 µM
[14] = second compound 0.316 µM, first compound 0.1 µM
[15] = second compound 0.316 µM, first compound 0.316 µM
[16] = second compound 0.316 µM, first compound 1 µM
[17] = second compound 0.316 µM, first compound 3.16 µM
[18] = second compound 0.316 µM, first compound 10 µM
[19] = second compound 1 µM, first compound 0.0316 µM
[20] = second compound 1 µM, first compound 0.1 µM
[21] = second compound 1 µM, first compound 0.316 µM
[22] = second compound 1 µM, first compound 1 µM
[23] = second compound 1 µM, first compound 3.16 µM
[24] = second compound 1 µM, first compound 10 µM
[25] = second compound 3.16 µM, first compound 0.0316 µM
[26] = second compound 3.16 µM, first compound 0.1 µM
[27] = second compound 3.16 µM, first compound 0.316 µM
[28] = second compound 3.16 µM, first compound 1 µM
[29] = second compound 3.16 µM, first compound 3.16 µM
[30] = second compound 3.16 µM, first compound 10 µM
[31] = second compound 10 µM, first compound 0.0316 µM
[32] = second compound 10 µM, first compound 0.1 µM
[33] = second compound 10 µM, first compound 0.316 µM
[34] = second compound 10 µM, first compound 1 µM
[35] = second compound 10 µM, first compound 3.16 µM
[36] = second compound 10 µM, first compound 10 µM
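Also: spheroids exposed to the agents for seven days before readout.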

SMILES: CC(CO)NC(=O)c1cc(-c2ccc(Cl)cc2)nn(-c2cnn(C)c2)c1=O (centres undefined) + CN1CCN(c2cc(C(=O)Nc3cc4cc(-c5cnn(C)c5)ccc4cn3)ccn2)CC1
- IC50 (second compound 0.0316 µM): 3780 nM
- IC50 (second compound 0.1 µM): < 31.6 nM
- IC50 (second compound 0.316 µM): < 31.6 nM
- IC50 (second compound 1 µM): < 31.6 nM
- IC50 (second compound 3.16 µM): < 31.6 nM
- IC50 (second compound 10 µM): < 31.6 nM
- viability, T/C [1]: 62.9%
- viability, T/C [2]: 71.7%
- viability, T/C [3]: 61.2%
- viability, T/C [4]: 78.3%
- viability, T/C [5]: 53.1%
- viability, T/C [6]: 33%
- viability, T/C [7]: 18.3%
- viability, T/C [8]: 15.8%
- viability, T/C [9]: 16.9%
- viability, T/C [10]: 15.6%
- viability, T/C [11]: 15.4%
- viability, T/C [12]: 14.6%
- viability, T/C [13]: 2.63%
- viability, T/C [14]: 2.2%
- viability, T/C [15]: 2.62%
- viability, T/C [16]: 2.67%
- viability, T/C [17]: 2.25%
- viability, T/C [18]: 2.13%
- viability, T/C [19]: 0.11%
- viability, T/C [20]: 0.12%
- viability, T/C [21]: 0.15%
- viability, T/C [22]: 0.11%
- viability, T/C [23]: 0.11%
- viability, T/C [24]: 0.13%
- viability, T/C [25]: 0.18%
- viability, T/C [26]: 0.27%
- viability, T/C [27]: 0.22%
- viability, T/C [28]: 0.18%
- viability, T/C [29]: 0.29%
- viability, T/C [30]: 0.19%
- viability, T/C [31]: 0.11%
- viability, T/C [32]: 0.14%
- viability, T/C [33]: 0.17%
- viability, T/C [34]: 0.21%
- viability, T/C [35]: 0.23%
- viability, T/C [36]: 0.19%

SMILES: CC(Nc1ccc2c(c1)OCCn1cc(N3C(=O)OCC3C(F)F)nc1-2)C(N)=O (centres undefined) + CN1CCN(c2cc(C(=O)Nc3cc4cc(-c5cnn(C)c5)ccc4cn3)ccn2)CC1
- IC50 (second compound 0.0316 µM): 3240 nM
- IC50 (second compound 0.1 µM): < 31.6 nM
- IC50 (second compound 0.316 µM): < 31.6 nM
- IC50 (second compound 1 µM): < 31.6 nM
- IC50 (second compound 3.16 µM): < 31.6 nM
- IC50 (second compound 10 µM): < 31.6 nM
- viability, T/C [1]: 53.4%
- viability, T/C [2]: 55.5%
- viability, T/C [3]: 56.8%
- viability, T/C [4]: 48.1%
- viability, T/C [5]: 51.4%
- viability, T/C [6]: 22.9%
- viability, T/C [7]: 20.4%
- viability, T/C [8]: 19.2%
- viability, T/C [9]: 17%
- viability, T/C [10]: 16.8%
- viability, T/C [11]: 14.3%
- viability, T/C [12]: 10.7%
- viability, T/C [13]: 1.57%
- viability, T/C [14]: 1.34%
- viability, T/C [15]: 0.89%
- viability, T/C [16]: 0.83%
- viability, T/C [17]: 0.72%
- viability, T/C [18]: 0.96%
- viability, T/C [19]: 0.08%
- viability, T/C [20]: 0.11%
- viability, T/C [21]: 0.12%
- viability, T/C [22]: 0.07%
- viability, T/C [23]: 0.09%
- viability, T/C [24]: 0.11%
- viability, T/C [25]: 0.12%
- viability, T/C [26]: 0.15%
- viability, T/C [27]: 0.15%
- viability, T/C [28]: 0.15%
- viability, T/C [29]: 0.17%
- viability, T/C [30]: 0.14%
- viability, T/C [31]: 0.07%
- viability, T/C [32]: 0.08%
- viability, T/C [33]: 0.13%
- viability, T/C [34]: 0.11%
- viability, T/C [35]: 0.24%
- viability, T/C [36]: 0.14%

— PubChem BioAssay AID2060599 (Molecular Pharmacology Branch, DTP, NCI, 2025)
